Key:
LRRK2 kinase = molecular target: T1, LRRK2 kinase (Homo sapiens, UniProt Q5S007); assay: Biochemical assay for LRRK2 (coupled pyruvate kinase/lactate dehydrogenase assay); conditions: 26.4 nM LRRK2 (residues 970-2528), peptide substrate, 1 mM ATP
T1 construct: purchased Thermo Fisher
Outline: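 Recombinant LRRK2 (26.4 nM) with 0.1 mM peptide substrate and 1 mM ATP in Tris pH 7.5/MgCl2 buffer; ADP production coupled via PK/LDH to NADH oxidation, A340 read continuously 6 h at 30 °C. Rates from 2–3 h window converted to % inhibition versus no-compound and reference-inhibitor controls; IC50 fitted.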

ULK kinase [1] = assay: pATG13 levels of mutant KRas MiaPaCa-2 cells after treatment with ULK inhibitors in combination with trametinib (ELISA); format: cell-based, human; conditions: MiaPaCa-2 pancreatic cancer cells, 250 nM trametinib, overnight, pS318-ATG13
Outline: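 MiaPaCa-2 cells in DMEM with 10% FBS and 2.5% horse serum were pretreated with trametinib or DMSO, then given a test-compound dose response overnight at 37° C. Lysates were assayed for phospho-ATG13 by ELISA (A450 minus A540 background, blank-corrected). % phosphorylation was calculated relative to controls and fitted to IC50.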

ULK kinase [2] = assay: pATG13 levels of mutant HRas T24 cells after treatment with ULK inhibitors in combination with trametinib (ELISA); format: cell-based, human; conditions: T24 urinary bladder cancer cells (mutant HRas), 250 nM trametinib, overnight, pS318-ATG13
Experimental: T24 human urinary bladder cancer cells (25000 cells/well) were added to a 96-well tissue-culture treated plate in 100 μL of pre-warmed DMEM medium supplemented with 10% characterized fetal bovine serum (Invitrogen, Carlsbad, Calif.), 100 units/mL penicillin G, and 100 μg/mL streptomycin and allowed to grow overnight at 37° C., 5% CO2, and 95% humidity. The following day, 100 μL of media containing trametinib or DMSO as a control was added to wells. […] A dose response of a test compound (0.5 μL per well) was added. DMSO (0.5 μL) was added to control wells. The plate was briefly shaken to mix wells and then incubated at 37° C. overnight. The next day, the media was aspirated and cells were washed with Dulbecco's Phosphate Buffered Saline (Gibco). Cells were lysed using MPER lysis buffer (Pierce, Rockford, Ill.) containing Halt Phosphatase and Protease Inhibitors (Pierce, Rockford, Ill.) and Phosphatase inhibitor cocktail 2 (Sigma, St. Louis, Mo.) at 4° C. for 10 minutes with shaking.
Plate wells were washed with ELISA wash buffer. Cell lysate was added to wells and incubated at room temperature for 2 hours. Plate wells were washed with ELISA wash buffer. […] Plate wells were washed with ELISA wash buffer. […] Plate wells were washed with ELISA wash buffer. […] The reaction was stopped with 2N Sulfuric Acid. The plate was analyzed at on a plate reader measuring absorbance at 450 nm and 540 nm (background). Signal was calculated by first subtracting the background absorbance at 540 nm from the absorbance at 450 nm for each well. Next, the background corrected absorbance at 450 nm from blank wells was subtracted from test wells. Data was compared to control wells to determine % ATG13 phosphorylation. GraphPad Prism was used to calculate IC50 values.

ULK kinase [3] = assay: pATG13 levels of mutant KRas A549 cells after treatment with ULK inhibitors in combination with trametinib (ELISA); format: cell-based, human; conditions: A549 (KRAS mutant) lung cancer cells, 250 nM trametinib, overnight, pS318-ATG13
Outline: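 Lysates with phosphatase/protease inhibitors assayed by pATG13 ELISA, A450 minus A540 background and blank-corrected. % ATG13 phosphorylation versus DMSO controls fitted to IC50.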

T1 sequence (Q5S007 with tags, fused parts or gaps): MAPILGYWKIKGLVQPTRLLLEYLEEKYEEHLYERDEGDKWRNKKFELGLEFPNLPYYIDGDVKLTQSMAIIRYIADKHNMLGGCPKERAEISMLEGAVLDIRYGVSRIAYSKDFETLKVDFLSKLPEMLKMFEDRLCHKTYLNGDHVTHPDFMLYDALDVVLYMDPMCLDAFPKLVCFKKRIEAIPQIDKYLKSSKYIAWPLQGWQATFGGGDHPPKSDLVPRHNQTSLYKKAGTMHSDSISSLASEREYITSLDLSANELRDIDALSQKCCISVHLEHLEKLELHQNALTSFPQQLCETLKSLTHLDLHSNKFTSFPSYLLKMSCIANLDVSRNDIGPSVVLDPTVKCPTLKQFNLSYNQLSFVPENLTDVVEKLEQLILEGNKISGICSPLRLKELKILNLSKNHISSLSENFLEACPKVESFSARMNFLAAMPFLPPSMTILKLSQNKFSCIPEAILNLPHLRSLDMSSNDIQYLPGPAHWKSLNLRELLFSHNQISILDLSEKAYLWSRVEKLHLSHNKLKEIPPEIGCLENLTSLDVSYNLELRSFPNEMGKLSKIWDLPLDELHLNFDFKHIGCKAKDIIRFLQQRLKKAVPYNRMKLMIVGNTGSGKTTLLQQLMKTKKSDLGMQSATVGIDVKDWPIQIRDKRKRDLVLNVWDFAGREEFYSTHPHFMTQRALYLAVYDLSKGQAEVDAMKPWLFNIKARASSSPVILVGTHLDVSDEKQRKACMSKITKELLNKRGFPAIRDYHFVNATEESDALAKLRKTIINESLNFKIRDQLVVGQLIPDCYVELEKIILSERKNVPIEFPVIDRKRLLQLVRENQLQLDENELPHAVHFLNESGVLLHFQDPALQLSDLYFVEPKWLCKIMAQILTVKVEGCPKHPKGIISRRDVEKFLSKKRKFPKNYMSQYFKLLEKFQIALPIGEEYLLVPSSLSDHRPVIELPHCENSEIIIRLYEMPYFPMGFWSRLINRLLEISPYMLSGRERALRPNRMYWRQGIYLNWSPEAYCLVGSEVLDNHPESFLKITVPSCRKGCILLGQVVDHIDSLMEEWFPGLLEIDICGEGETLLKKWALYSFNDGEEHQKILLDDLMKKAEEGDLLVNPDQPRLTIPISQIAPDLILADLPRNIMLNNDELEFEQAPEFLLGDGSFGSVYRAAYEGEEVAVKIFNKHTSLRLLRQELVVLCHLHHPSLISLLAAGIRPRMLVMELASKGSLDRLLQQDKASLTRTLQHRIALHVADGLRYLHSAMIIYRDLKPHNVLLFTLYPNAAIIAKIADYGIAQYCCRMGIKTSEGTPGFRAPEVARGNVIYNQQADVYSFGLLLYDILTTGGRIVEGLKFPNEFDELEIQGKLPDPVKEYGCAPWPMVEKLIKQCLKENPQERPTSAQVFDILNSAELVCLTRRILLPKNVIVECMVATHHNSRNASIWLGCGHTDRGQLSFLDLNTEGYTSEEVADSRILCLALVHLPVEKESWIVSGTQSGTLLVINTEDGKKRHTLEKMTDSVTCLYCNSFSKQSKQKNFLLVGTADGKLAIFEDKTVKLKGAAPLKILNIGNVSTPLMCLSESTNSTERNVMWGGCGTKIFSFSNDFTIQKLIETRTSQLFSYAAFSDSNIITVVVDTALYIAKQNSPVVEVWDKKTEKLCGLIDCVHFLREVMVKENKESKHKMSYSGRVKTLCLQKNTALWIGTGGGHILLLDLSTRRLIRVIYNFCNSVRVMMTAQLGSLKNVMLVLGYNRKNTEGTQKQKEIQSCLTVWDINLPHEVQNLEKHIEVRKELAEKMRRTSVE

| IC50 (LRRK2 kinase) [nM] | IC50 (ULK kinase [1]) [nM] | IC50 (ULK kinase [2]) [nM] | IC50 (ULK kinase [3]) [nM] | SMILES |
| --- | --- | --- | --- | --- |
| 100 to 300 | 10 to 100 | 100 to 300 | 10 to 100 | CCc1cc(N2CCNCC2)ccc1Nc1ncc(C(F)(F)F)c(NCCCN2CCCOC2=O)n1 [Example 46] |
| 100 to 300 | 10 to 100 | 10 to 100 | 10 to 100 | CCc1cc(N2CCN(C)CC2)ccc1Nc1ncc(Br)c(NCCCN2CCOCCC2=O)n1 [Example 76] |
| 1 to 100 | 10 to 100 | 100 to 300 | 10 to 100 | CCc1cc(N2CCN(C)CC2)c(F)cc1Nc1ncc(C(F)(F)F)c(NCCCN2CCOCCC2=O)n1 [Example 86] |
| 1 to 100 | 100 to 300 | 100 to 300 | 10 to 100 | O=C1OCCCN1CCCNc1nc(Nc2ccc(N3CCNCC3)cc2C2CC2)ncc1C(F)(F)F [Example 99] |

Second part, the compound before the results:

| SMILES | IC50 (LRRK2 kinase) [nM] | IC50 (ULK kinase [1]) [nM] | IC50 (ULK kinase [2]) [nM] | IC50 (ULK kinase [3]) [nM] |
| --- | --- | --- | --- | --- |
| CN1CCN(c2ccc(Nc3ncc(C(F)(F)F)c(NCCCN4CCCCC4=O)n3)c(C3CC3)c2)CC1 [Example 14] | 1 to 100 | 10 to 100 | 10 to 100 | 10 to 100 |
| CCc1cc(N2CCN(C)CC2)ccc1Nc1ncc(C(F)(F)F)c(NCCCN2CCCOC2=O)n1 [Example 39] | 1 to 100 | 10 to 100 | 10 to 100 | 10 to 100 |
| CN1CCN(c2ccc(Nc3ncc(C(F)(F)F)c(NCCCN4CCCOC4=O)n3)c(C3CC3)c2)CC1 [Example 41] | 1 to 100 | 10 to 100 | 10 to 100 | 10 to 100 |
| CN1CCN(c2ccc(Nc3ncc(C(F)(F)F)c(NCCCN4CCCOCC4=O)n3)c(C3CC3)c2)CC1 [Example 52] | 1 to 100 | 10 to 100 | – | 10 to 100 |
| CN1CCN(c2ccc(Nc3ncc(Cl)c(NCCCN4CCCOCC4=O)n3)c(C3CC3)c2)CC1 [Example 55] | 100 to 300 | 10 to 100 | – | 100 to 300 |
| CN1CCN(c2ccc(Nc3ncc(C(F)(F)F)c(NCCCN4CCOCCC4=O)n3)c(C3CC3)c2)CC1 [Example 70] | 1 to 100 | 10 to 100 | 10 to 100 | 10 to 100 |
| CCc1cc(N2CC3CCC(C2)N3C)ccc1Nc1ncc(C(F)(F)F)c(NCCCN2CCOCCC2=O)n1 [Example 74] | 300 to 600 | 10 to 100 | 10 to 100 | 10 to 100 |
| CCc1cc(N2CCNCC2)ccc1Nc1ncc(C(F)(F)F)c(NCCCN2CCOCCC2=O)n1 [Example 84] | 100 to 300 | 10 to 100 | 100 to 300 | 10 to 100 |

— patent publication US11530206B2, “Phenylaminopyrimidine amide autophagy inhibitors and methods of use thereof” (Deciphera Pharmaceuticals, LLC, priority 2019, dated 2022)
